Test results: ChEMBL document CHEMBL1201862, “PubChem BioAssay data set” (2004)
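The compound was tested at five concentrations on cells cultured in 96-well plates, with a 48-hour exposure period. Abbreviation: GI50, concentration required for 50% inhibition of growth.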 Activity calls are given as the source filed them. No stated cut-off is given here; in the data, active = GI50 up to about 1.1 µM and inactive = higher.

Tests used:
Assay in all cases: DTP human tumour cell line panel, 48 h
786-0 = tested on: 786-0
A498 = tested on: A498
A549 = tested on: A549
ACHN = tested on: ACHN
BT-549 = tested on: BT-549
CAKI-1 = tested on: CAKI-1
DU-145 = tested on: DU-145
EKVX = tested on: EKVX
HCT-116 = tested on: HCT-116
HCT-15 = tested on: HCT-15
HL-60 = tested on: HL-60
HOP-62 = tested on: HOP-62
HT-29 = tested on: HT-29
Hs-578T = tested on: Hs-578T
KM12 = tested on: KM12
LOX IMVI = tested on: LOX IMVI
M14 = tested on: M14
MCF7 = tested on: MCF7
MDA-MB-435 = tested on: MDA-MB-435
MDA-N = tested on: MDA-N
MOLT-4 = tested on: MOLT-4
Malme-3M = tested on: Malme-3M
NCI-H226 = tested on: NCI-H226
NCI-H23 = tested on: NCI-H23
NCI-H460 = tested on: NCI-H460
NCI/ADR-RES = tested on: NCI/ADR-RES
OVCAR-4 = tested on: OVCAR-4
OVCAR-5 = tested on: OVCAR-5
OVCAR-8 = tested on: OVCAR-8
PC-3 = tested on: PC-3
SF-268 = tested on: SF-268
SF-295 = tested on: SF-295
SF-539 = tested on: SF-539
SK-MEL-28 = tested on: SK-MEL-28
SK-MEL-2 = tested on: SK-MEL-2
SK-MEL-5 = tested on: SK-MEL-5
SK-OV-3 = tested on: SK-OV-3
SN12C = tested on: SN12C
SNB-19 = tested on: SNB-19
SNB-75 = tested on: SNB-75
T47D = tested on: T47D
U-251 = tested on: U-251
UACC-257 = tested on: UACC-257
UACC-62 = tested on: UACC-62
UO-31 = tested on: UO-31
CCRF-CEM = tested on: CCRF-CEM
COLO 205 = tested on: COLO 205
HCC 2998 = tested on: HCC 2998
HOP-92 = tested on: HOP-92
IGROV-1 = tested on: IGROV-1
K562 = tested on: K562
MDA-MB-231 = tested on: MDA-MB-231
NCI-H522 = tested on: NCI-H522
OVCAR-3 = tested on: OVCAR-3
RPMI-8226 = tested on: RPMI-8226
RXF 393 = tested on: RXF 393
SR = tested on: SR
SW-620 = tested on: SW-620
TK-10 = tested on: TK-10

CN1CCN(CCCN2c3ccccc3Sc3ccc(C(F)(F)F)cc32)CC1
GI50 (786-0): 4.14 µM (inactive)
GI50 (A498): 12.6 µM (inactive)
GI50 (A549): 10.2 µM (inactive)
GI50 (ACHN): 10.7 µM (inactive)
GI50 (BT-549): 12.1 µM (inactive)
GI50 (CAKI-1): 9.64 µM (inactive)
GI50 (DU-145): 10.5 µM (inactive)
GI50 (EKVX): 10.6 µM (inactive)
GI50 (HCT-116): 4.25 µM (inactive)
GI50 (HCT-15): 4.33 µM
GI50 (HL-60): 4.58 µM (inactive)
GI50 (HOP-62): 11.3 µM (inactive)
GI50 (HT-29): 2.35 µM (inactive)
GI50 (Hs-578T): 3.4 µM (inactive)
GI50 (KM12): 2.94 µM (inactive)
GI50 (LOX IMVI): 2.73 µM (inactive)
GI50 (M14): 1.72 µM (inactive)
GI50 (MCF7): 4.61 µM (inactive)
GI50 (MDA-MB-435): 2.92 µM (inactive)
GI50 (MDA-N): 3.2 µM (inactive)
GI50 (MOLT-4): 2.92 µM (inactive)
GI50 (Malme-3M): 1.45 µM (inactive)
GI50 (NCI-H226): 13.2 µM (inactive)
GI50 (NCI-H23): 11.1 µM (inactive)
GI50 (NCI-H460): 2.24 µM (inactive)
GI50 (NCI/ADR-RES): 8.22 µM (inactive)
GI50 (OVCAR-4): 8.81 µM (inactive)
GI50 (OVCAR-5): 11.2 µM (inactive)
GI50 (OVCAR-8): 13.1 µM (inactive)
GI50 (PC-3): 4.58 µM (inactive)
GI50 (SF-268): 7.78 µM (inactive)
GI50 (SF-295): 5.79 µM (inactive)
GI50 (SF-539): 4.65 µM (inactive)
GI50 (SK-MEL-28): 1.66 µM (inactive)
GI50 (SK-MEL-2): 4.18 µM (inactive)
GI50 (SK-MEL-5): 1.91 µM (inactive)
GI50 (SK-OV-3): 13.5 µM (inactive)
GI50 (SN12C): 7.57 µM (inactive)
GI50 (SNB-19): 11.4 µM (inactive)
GI50 (SNB-75): 4.31 µM (inactive)
GI50 (T47D): 6.1 µM (inactive)
GI50 (U-251): 4.95 µM (inactive)
GI50 (UACC-257): 1.91 µM (inactive)
GI50 (UACC-62): 2.06 µM (inactive)
GI50 (UO-31): 6.32 µM (inactive)

COc1ccc(CN2C[C@H]3[C@@H](CC(=O)O[C@H]3C)CC2=O)cc1
GI50 (786-0): > 100 µM (inactive)
GI50 (A498): > 100 µM (inactive)
GI50 (A549): > 100 µM (inactive)
GI50 (ACHN): > 100 µM (inactive)
GI50 (BT-549): > 100 µM (inactive)
GI50 (CAKI-1): > 100 µM (inactive)
GI50 (CCRF-CEM): > 100 µM (inactive)
GI50 (COLO 205): > 100 µM (inactive)
GI50 (DU-145): > 100 µM (inactive)
GI50 (EKVX): > 100 µM (inactive)
GI50 (HCC 2998): > 100 µM (inactive)
GI50 (HCT-116): > 100 µM (inactive)
GI50 (HCT-15): > 100 µM
GI50 (HOP-62): > 100 µM (inactive)
GI50 (HOP-92): > 100 µM (inactive)
GI50 (HT-29): > 100 µM (inactive)
GI50 (Hs-578T): > 100 µM (inactive)
GI50 (IGROV-1): > 100 µM (inactive)
GI50 (K562): > 100 µM (inactive)
GI50 (KM12): > 100 µM (inactive)
GI50 (M14): > 100 µM (inactive)
GI50 (MCF7): > 100 µM (inactive)
GI50 (MDA-MB-231): > 100 µM (inactive)
GI50 (MDA-MB-435): > 100 µM (inactive)
GI50 (MDA-N): > 100 µM (inactive)
GI50 (MOLT-4): > 100 µM (inactive)
GI50 (Malme-3M): > 100 µM (inactive)
GI50 (NCI-H23): > 100 µM (inactive)
GI50 (NCI-H460): > 100 µM (inactive)
GI50 (NCI-H522): > 100 µM (inactive)
GI50 (NCI/ADR-RES): > 100 µM (inactive)
GI50 (OVCAR-3): > 100 µM (inactive)
GI50 (OVCAR-4): > 100 µM (inactive)
GI50 (OVCAR-5): > 100 µM (inactive)
GI50 (OVCAR-8): > 100 µM (inactive)
GI50 (PC-3): > 100 µM (inactive)
GI50 (RPMI-8226): > 100 µM (inactive)
GI50 (RXF 393): > 100 µM (inactive)
GI50 (SF-268): > 100 µM (inactive)
GI50 (SF-295): > 100 µM (inactive)
GI50 (SK-MEL-28): > 100 µM (inactive)
GI50 (SK-MEL-2): > 100 µM (inactive)
GI50 (SK-MEL-5): > 100 µM (inactive)
GI50 (SK-OV-3): > 100 µM (inactive)
GI50 (SNB-19): > 100 µM (inactive)
GI50 (SNB-75): > 100 µM (inactive)
GI50 (SR): > 100 µM (inactive)
GI50 (SW-620): > 100 µM (inactive)
GI50 (U-251): > 100 µM (inactive)
GI50 (UACC-257): > 100 µM (inactive)
GI50 (UACC-62): > 100 µM (inactive)
GI50 (UO-31): > 100 µM (inactive)

CCCCCC/C=C/C#CCCCCCCCC(=O)O
GI50 (786-0): > 100 µM (inactive)
GI50 (A498): > 100 µM (inactive)
GI50 (A549): > 100 µM (inactive)
GI50 (ACHN): > 100 µM (inactive)
GI50 (BT-549): > 100 µM (inactive)
GI50 (CAKI-1): > 100 µM (inactive)
GI50 (CCRF-CEM): 82.4 µM (inactive)
GI50 (COLO 205): > 100 µM (inactive)
GI50 (DU-145): > 100 µM (inactive)
GI50 (EKVX): > 100 µM (inactive)
GI50 (HCC 2998): > 100 µM (inactive)
GI50 (HCT-116): > 100 µM (inactive)
GI50 (HCT-15): > 100 µM
GI50 (HL-60): > 100 µM (inactive)
GI50 (HOP-92): > 100 µM (inactive)
GI50 (HT-29): > 100 µM (inactive)
GI50 (Hs-578T): > 100 µM (inactive)
GI50 (IGROV-1): > 100 µM (inactive)
GI50 (K562): > 100 µM (inactive)
GI50 (KM12): > 100 µM (inactive)
GI50 (LOX IMVI): > 100 µM (inactive)
GI50 (M14): > 100 µM (inactive)
GI50 (MCF7): > 100 µM (inactive)
GI50 (MDA-MB-231): > 100 µM (inactive)
GI50 (MDA-MB-435): > 100 µM (inactive)
GI50 (MDA-N): > 100 µM (inactive)
GI50 (MOLT-4): 78.2 µM (inactive)
GI50 (Malme-3M): > 100 µM (inactive)
GI50 (NCI-H226): > 100 µM (inactive)
GI50 (NCI-H23): > 100 µM (inactive)
GI50 (NCI-H460): > 100 µM (inactive)
GI50 (NCI-H522): > 100 µM (inactive)
GI50 (NCI/ADR-RES): > 100 µM (inactive)
GI50 (OVCAR-3): > 100 µM (inactive)
GI50 (OVCAR-4): > 100 µM (inactive)
GI50 (OVCAR-5): > 100 µM (inactive)
GI50 (OVCAR-8): > 100 µM (inactive)
GI50 (PC-3): > 100 µM (inactive)
GI50 (RPMI-8226): > 100 µM (inactive)
GI50 (SF-268): > 100 µM (inactive)
GI50 (SF-295): > 100 µM (inactive)
GI50 (SF-539): > 100 µM (inactive)
GI50 (SK-MEL-28): > 100 µM (inactive)
GI50 (SK-MEL-2): > 100 µM (inactive)
GI50 (SK-MEL-5): > 100 µM (inactive)
GI50 (SK-OV-3): > 100 µM (inactive)
GI50 (SN12C): > 100 µM (inactive)
GI50 (SNB-19): > 100 µM (inactive)
GI50 (SNB-75): > 100 µM (inactive)
GI50 (SW-620): > 100 µM (inactive)
GI50 (T47D): > 100 µM (inactive)
GI50 (TK-10): > 100 µM (inactive)
GI50 (U-251): > 100 µM (inactive)
GI50 (UACC-257): > 100 µM (inactive)
